Like-named read-outs stand apart in the source and are kept apart here.
Key:
[1] = target: human serotonin 5-HT7bR (Homo sapiens, UniProt P34969); assay: Radioligand binding, [3H]-5-CT displacement
[2] = target: T1, human serotonin 5-HT1AR (Homo sapiens, UniProt P08908); assay: Radioligand binding, [3H]-8-OH-DPAT displacement
T1 sequence (P08908 1-422): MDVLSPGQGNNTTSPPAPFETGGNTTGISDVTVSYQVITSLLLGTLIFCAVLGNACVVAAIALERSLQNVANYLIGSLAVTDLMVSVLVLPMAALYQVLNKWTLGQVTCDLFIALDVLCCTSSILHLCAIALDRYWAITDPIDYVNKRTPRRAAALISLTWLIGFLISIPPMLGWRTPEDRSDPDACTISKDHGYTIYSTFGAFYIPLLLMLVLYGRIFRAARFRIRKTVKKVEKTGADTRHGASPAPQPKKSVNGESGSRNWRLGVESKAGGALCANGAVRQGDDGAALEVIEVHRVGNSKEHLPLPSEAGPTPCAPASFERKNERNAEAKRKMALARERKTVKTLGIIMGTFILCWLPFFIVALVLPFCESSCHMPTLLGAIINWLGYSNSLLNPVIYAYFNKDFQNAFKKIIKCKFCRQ

[3] = target: human serotonin 5-HT6R (Homo sapiens, UniProt P50406); assay: Radioligand binding, [3H]-LSD displacement
human serotonin 5-HT6R, sequence (P50406 whole entry): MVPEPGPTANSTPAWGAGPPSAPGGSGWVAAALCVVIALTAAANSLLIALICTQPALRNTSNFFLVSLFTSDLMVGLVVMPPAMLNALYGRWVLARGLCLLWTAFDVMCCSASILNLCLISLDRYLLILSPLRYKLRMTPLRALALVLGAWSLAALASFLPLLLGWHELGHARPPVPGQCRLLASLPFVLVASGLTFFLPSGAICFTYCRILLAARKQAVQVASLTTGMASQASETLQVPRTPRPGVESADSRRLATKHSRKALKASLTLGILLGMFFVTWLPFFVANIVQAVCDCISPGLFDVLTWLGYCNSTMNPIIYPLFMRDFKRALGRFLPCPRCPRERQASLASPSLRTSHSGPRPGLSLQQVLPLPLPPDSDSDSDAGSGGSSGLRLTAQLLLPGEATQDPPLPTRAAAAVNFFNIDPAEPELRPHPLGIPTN

[4] = target: T2, human serotonin 5-HT2A receptor (Homo sapiens, UniProt P28223); assay: Radioligand binding, [3H]-ketanserin displacement
T2 construct: host or cells: CHO-K1
T2 sequence (P28223 whole entry): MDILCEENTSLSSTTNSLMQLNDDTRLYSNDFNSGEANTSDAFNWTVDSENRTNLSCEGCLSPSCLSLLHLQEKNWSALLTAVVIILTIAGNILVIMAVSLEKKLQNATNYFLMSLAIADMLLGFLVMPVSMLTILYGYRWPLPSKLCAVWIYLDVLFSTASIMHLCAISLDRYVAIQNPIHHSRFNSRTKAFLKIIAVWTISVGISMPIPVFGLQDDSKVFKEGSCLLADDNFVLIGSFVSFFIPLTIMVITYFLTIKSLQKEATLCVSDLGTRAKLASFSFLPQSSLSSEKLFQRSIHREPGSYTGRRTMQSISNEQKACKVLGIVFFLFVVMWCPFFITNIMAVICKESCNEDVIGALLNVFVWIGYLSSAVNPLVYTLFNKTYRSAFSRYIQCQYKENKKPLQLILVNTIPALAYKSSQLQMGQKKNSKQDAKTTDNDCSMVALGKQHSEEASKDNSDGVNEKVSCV

[5] = target: human dopamine D2LR (Homo sapiens, UniProt P14416); assay: Radioligand binding, [3H]-raclopride displacement
human dopamine D2LR, sequence (P14416 whole entry): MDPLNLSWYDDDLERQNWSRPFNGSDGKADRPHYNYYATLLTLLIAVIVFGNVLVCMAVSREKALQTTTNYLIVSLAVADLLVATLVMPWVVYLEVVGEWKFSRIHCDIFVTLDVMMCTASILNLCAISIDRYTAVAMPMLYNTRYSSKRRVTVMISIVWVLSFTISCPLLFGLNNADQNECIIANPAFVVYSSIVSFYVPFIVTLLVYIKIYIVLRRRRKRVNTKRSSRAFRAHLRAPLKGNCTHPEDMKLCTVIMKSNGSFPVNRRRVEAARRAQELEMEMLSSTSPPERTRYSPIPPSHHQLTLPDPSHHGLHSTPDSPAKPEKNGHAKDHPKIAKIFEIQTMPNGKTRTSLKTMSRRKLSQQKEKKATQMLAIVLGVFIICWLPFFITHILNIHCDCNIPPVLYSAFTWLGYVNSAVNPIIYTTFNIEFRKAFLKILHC

[6] = target: human 5-HT7 receptor (Homo sapiens, UniProt P34969); assay: Functional assay, cAMP production (TR-FRET) in HEK293 cells overexpressing 5-HT7R; type: cell-based; details: for EC50: hydrochloride salts
human 5-HT7 receptor, sequence (P34969 1-432 limits assumed): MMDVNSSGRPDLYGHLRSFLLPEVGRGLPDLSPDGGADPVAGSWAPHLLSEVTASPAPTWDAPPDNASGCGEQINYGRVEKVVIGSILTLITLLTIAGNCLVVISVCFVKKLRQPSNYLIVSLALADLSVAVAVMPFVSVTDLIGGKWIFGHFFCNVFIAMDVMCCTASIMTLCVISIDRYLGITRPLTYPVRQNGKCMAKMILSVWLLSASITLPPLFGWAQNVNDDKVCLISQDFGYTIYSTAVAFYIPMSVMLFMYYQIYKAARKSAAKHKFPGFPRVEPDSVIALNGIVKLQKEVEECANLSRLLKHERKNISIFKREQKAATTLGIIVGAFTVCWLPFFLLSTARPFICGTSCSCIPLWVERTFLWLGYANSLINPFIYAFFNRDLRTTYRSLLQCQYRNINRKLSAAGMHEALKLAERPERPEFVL

[7] = Fig. 2, read-out: pKi 5-HT7 (converted)
[8] = Fig. 2, read-out: pKi 5-HT1A (converted)
[9] = Fig. 2, read-out: pKi 5-HT6 (converted)
[10] = Fig. 2, read-out: pKi 5-HT2A (converted)
[11] = Fig. 2, read-out: pKi D2 (converted)

human serotonin 5-HT7bR, sequence (P34969 1-432 limits assumed): as above

Compound | Ki [1, 7] [nM] | Ki [2, 8] [µM] | Ki [3, 9] [µM] | Ki [4, 10] [µM] | Ki [5, 11] [µM] | also measured
CCn1cncc1-c1c[nH]c2ccc(F)cc12 [1l] | – | – | – | – | – | Ki ([1]; read-out: Ki 5-HT7): 302 nM
COc1ccc2[nH]cc(-c3cnc[nH]3)c2c1 [1x] | 1200 | 6.76 | 4.07 | 7.94 | 6.17 | –
CCn1cncc1-c1cn(C)c2ccccc12 [1c] | – | > 10 | 7.76 | > 10 | > 10 | Ki ([1]; read-out: Ki 5-HT7): 5620 nM
COc1ccc(-c2cncn2C)cc1 [2b] | > 10000 | > 10 | 5.37 | > 10 | > 10 | binding to 5-HT7R in words [1]: completely inactive
C=CCn1cncc1-c1c[nH]c2ccc(OC)cc12 [1i] | 135 | 0.537 | 5.75 | > 10 | > 10 | –
CCn1cncc1-c1c[nH]c2ccc(C)cc12 [1q] | – | – | – | – | – | Ki ([1]; read-out: K i (5-HT7R)): 44 nM; function at the human 5-HT7 receptor [6]: full agonists; EC50 [6]: 0.045 µM
CCn1cncc1-c1c[nH]c2ccc(OCc3ccccc3)cc12 [1y] | 3720 | > 10 | – | > 10 | 4.47 | –
Cc1ccc2[nH]cc(CCN)c2c1 [5-methyltryptamine, reference compound] | – | – | – | – | – | Ki [1]: 26 nM; Ki [2]: 0.039 µM; Ki [3]: 0.327 µM; Ki [4]: 2.28 µM; Ki [5]: > 10 µM
Cn1cncc1-c1c[nH]c2ccccc12 [1a] | – | 4.47 | 3.39 | 6.92 | 6.92 | melting point: 88 to 90 °C; selectivity over 5-HT1AR [1]: > 11 fold; Ki ([1]; read-out: Ki 5-HT7): 385 nM
CCn1cncc1-c1c[nH]c2cccc(Br)c12 [1k] | 2290 | > 10 | 8.71 | > 10 | > 10 | binding to 5-HT7R in words [1]: low affinity
CCn1cncc1-c1c[nH]c2ccc(Br)cc12 [1n] | – | – | – | – | – | Ki ([1]; read-out: K i (5-HT7R)): 20 nM; function at the human 5-HT7 receptor [6]: full agonists; EC50 [6]: 0.154 µM
COc1cccc(-c2cncn2C)c1 [2c] | > 10000 | > 10 | 8.91 | > 10 | > 10 | –
CCCn1cncc1-c1c[nH]c2ccc(OC)cc12 [1f] | 64.6 | > 10 | > 10 | 4.27 | > 10 | –
CCn1cncc1-c1cn(C)c2ccc(OC)cc12 [1d] | – | 5.01 | 5.5 | > 10 | > 10 | Ki ([1]; read-out: Ki 5-HT7): > 10000 nM
COc1ccc(-c2c([N+](=O)[O-])ncn2C)cc1 [2a] | > 10000 | > 10 | > 10 | > 10 | > 10 | melting point: 171 °C; binding to 5-HT7R in words [1]: did not bind; binding to 5-HT1AR in words [2]: did not bind
CCn1cncc1-c1c[nH]c2cc(Br)ccc12 [1j] | > 10000 | > 10 | 6.92 | > 10 | > 10 | binding to 5-HT7R in words [1]: low affinity

Compound | Ki [1, 7] [nM] | Ki [2, 8] [µM] | Ki [3, 9] [µM] | Ki [4, 10] [µM] | Ki [5, 11] [µM] | also measured
CCn1cncc1-c1c(C)[nH]c2ccc(OC)cc12 [1v] | > 10000 | > 10 | > 10 | > 10 | > 10 | –
COc1ccc2[nH]cc(-c3cncn3C3CC3)c2c1 [1h] | 3310 | 1.29 | 5.25 | > 10 | > 10 | binding to 5-HT7R in words [1]: non-active
CCCCn1cncc1-c1c[nH]c2ccc(OC)cc12 [1g] | 324 | 0.661 | 5.89 | 6.17 | > 10 | –
CCn1cncc1-c1ccc2cc[nH]c2c1 [3d] | 2630 | > 10 | 4.57 | > 10 | > 10 | –
COc1ccc2[nH]cc(CCN)c2c1 [5-methoxytryptamine, reference compound] | – | – | – | – | – | Ki [5]: > 10 µM
NCCc1c[nH]c2ccc(Cl)cc12 [5-chlorotryptamine, reference compound] | – | – | – | – | – | Ki [1]: 16 nM; Ki [2]: 0.016 µM; Ki [3]: 0.038 µM; Ki [4]: 0.317 µM; Ki [5]: 2.44 µM
COc1cc(-c2cncn2C)c(OC)cc1I [2f] | > 10000 | > 10 | 5.37 | > 10 | 6.92 | –
CCn1cncc1-c1c[nH]c2ccc(C#N)cc12 [1p] | 2510 | > 10 | > 10 | > 10 | > 10 | –
CCn1cncc1-c1c[nH]c2ccc(C(N)=O)cc12 [1za, 3-(1-Ethyl-1H-imidazol-5-yl)-1H-indole-5-carboxamide] | – | – | – | – | – | Ki ([1]; read-out: Ki 5-HT7): 5 nM
Cn1cncc1-c1ccccc1 [2e] | > 10000 | > 10 | > 10 | > 10 | > 10 | –
CCn1cncc1-c1c[nH]c2ccc(Cl)cc12 [1m] | – | – | – | – | – | Ki ([1]; read-out: K i (5-HT7R)): 42 nM; function at the human 5-HT7 receptor [6]: full agonists; EC50 [6]: 0.149 µM
CCn1cncc1-c1ccc2[nH]ccc2c1 [3c] | 5250 | > 10 | 3.55 | > 10 | > 10 | –
COc1ccccc1-c1cncn1C [2d] | 2450 | > 10 | > 10 | > 10 | > 10 | –
COc1ccc2[nH]cc(-c3cncn3C)c2c1 [1b] | – | 0.851 | 2.4 | 3.39 | > 10 | melting point: 236 °C; selectivity over 5-HT1AR [1]: > 11 fold; Ki ([1]; Table 1, the head of this column prints no unit, nM, read-out: K i (5-HT7R)): 55 nM; function at the human 5-HT7 receptor [6]: full agonists; EC50 [6]: 0.15 µM
Cn1cc(CCN)c2ccccc21 [1-methyltryptamine, reference compound] | – | – | – | – | – | Ki [1]: 4830 nM; Ki [2]: 2.39 µM; Ki [3]: 3.62 µM; Ki [4]: 6.59 µM; Ki [5]: 6.54 µM
CCn1cncc1-c1cc2ccccc2[nH]1 [3b] | > 10000 | > 10 | > 10 | > 10 | > 10 | –
